In patent US20060100431A1, “Biologically active compounds” (Amura Therapeutics Limited, priority 2002, published 2006):
Each block holds one compound with its values, some of them ahead of it.

Columns and labels:
Assay type in all cases: biochemical
Bovine cathepsin S = target: T1, Bovine cathepsin S (Bos taurus, UniProt P25326); test: Cathepsin S peptidase activity assay, bovine enzyme (Ki); conditions: species of cathepsin S not given; read-out: Ki, inhibitors of cathepsin S
T1 construct: purchased CN Biosciences
Procedure: Unless otherwise stated, all general chemicals and biochemicals were purchased from either the Sigma Chemical Company, Poole, Dorset, U.K or from Fisher Scientific UK, Loughborough, Leicestershire, U.K. Absorbance assays were carried out in flat-bottomed 96-well plates (Spectra; Greiner Bio-One Ltd., Stonehouse, Gloucestershire, U.K.) using a SpectraMax PLUS384 plate reader (Molecular Devices, Crawley, U.K.). Fluorescence high throughput assays were carried out in either 384-well microtitre plates (Corning Costar 3705 plates, Fisher Scientific) or 96-well ‘U’ bottomed Microfluor W1 microtitre plates (Thermo Labsystems, Ashford, Middlesex, U.K.). Fluorescence assays were monitored using a SpectraMax Gemini fluorescence plate reader (Molecular Devices). For substrates employing either a 7-amino-4-methylcoumarin (AMC) or a 7-amino-4-trifluoromethylcoumarin (AFC) fluorophore, assays were monitored at an excitation wavelength of 365 nm and an emission wavelength of 450 nm and the fluorescence plate reader calibrated with AMC. For substrates employing a 3-amino-benzoyl (Abz) fluorophore, assays were monitored at an excitation wavelength of 310 nm and an emission wavelength of 445 nm; the fluorescence plate reader calibrated with 3-amino-benzamide (Fluka). Unless otherwise indicated, all the peptidase substrates were purchased from Bachem UK, St Helens, Merseyside, UK. Substrates utilizing fluorescence resonance energy transfer methodology (i.e. FRET-based substrates) were synthesized at Incenta Limited using published methods (Atherton & Sheppard, Solid Phase Peptide Synthesis, IRL Press, Oxford, U.K, 1989) and employed Abz (2-aminobenzoyl) as the fluorescence donor and 3-nitro-tyrosine [Tyr(NO2)] as the fluorescence quencher (Meldal, M. and Breddam, K., Anal. Biochem, 195, 141-147, 1991). Hydroxyethylpiperazine ethanesulfonate (HEPES), tris-hydroxylmethyl aminomethane (tris) base, bis-tris-propane and all the biological detergents (e.g. CHAPS, zwittergents, etc.) were purchased from CN Biosciences UK, Beeston, Nottinghamshire, U.K. Glycerol was purchased from Amersham Pharmacia Biotech, Little Chalfont, Buckinghamshire, U.K. Stock solutions of substrate or inhibitor were made up to 10 mM in 100% dimethylsulfoxide (DMSO) (Rathburns, Glasgow, U.K.) and diluted as appropriately required. In all cases the DMSO concentration in the assays was maintained at less than 1% (vol./vol.).
Assay protocols were based on literature precedent (Table 4; Barrett, A. J., Rawlings, N. D. and Woessner, J. F., 1998, Handbook of Proteolytic Enzymes, Academic Press, London and references therein) and modified as required to suit local assay protocols. Enzyme was added as required to initiate the reaction and the activity, as judged by the change in fluorescence upon conversion of substrate to product, was monitored over time. All assays were carried out at 25±1° C.
Bovine cathepsin S, human cathepsin L, human cathepsin H and human cathepsin B were obtained from CN Biosciences. Recombinant human cathepsin S, human cathepsin K and human cathepsin X were obtained from Dr. Boris Turk (Josef Stefan Institute, Ljubljana, Slovenia). Unless otherwise stated, all peptidase activity assays were carried out in 10 mM bis-tris-propane (BTP), pH 6.5 containing 1 mM EDTA, 5 mM 2-mercaptoethanol and 1 mM CaCl2. Human cathepsin H activity assays were carried out in 10 mM BTP pH 6.5, 142 mM NaCl2, 1 mM CaCl2, 1 mM EDTA, 1 mM DTT, 0.035 mM Zwittergent 3-16. Human cathepsin K assays were carried out in 100 mM sodium acetate; pH 5.5 containing 20 mM L-cysteine and 1 mM EDTA (Bossard, M. J., et. al., J. Biol. Chem., 21, 12517-12524, 1996). Human cathepsin X assays were carried out in 100 mM sodium acetate; pH 5.5 containing 20 mM L-cysteine; 0.05% (w/v) Brij 35 and 1 mM EDTA (Santamaria, I., et. al., J. Biol. Chem., 273, 16816-16823, 1998; Klemencic, J, et al., Eur. J. Biochem., 267, 5404-5412, 2000).

human cathepsin L = target: T2, human cathepsin L (Homo sapiens, UniProt P07711); test: Cathepsin L peptidase activity assay (Ki); conditions: read-out: Ki, inhibitors of cathepsin L
T2 construct: purchased CN Biosciences
Method in brief: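 Run at 25±1° C with DMSO under 1%: buffer was 10 mM BTP pH 6.5 containing 1 mM EDTA, 1 mM CaCl2 and 5 mM 2-mercaptoethanol. Enzyme (1 nM cathepsin L) was added last to start hydrolysis of Ac-Phe-Arg-AMC held at KM^app (~20 μM), followed kinetically by fluorescence at 365/450 nm.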

Wild-type cruzipain = Wild-type cruzipain (Trypanosoma cruzi, UniProt P25779); test: Trypanosoma cruzi cruzipain peptidase activity assay (Ki); conditions: read-out: Ki, inhibitors of cruzain and cruzipains
Method in brief: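 Native cruzipain from T. cruzi Dm28 epimastigotes, 2.5 nM, in 100 mM sodium phosphate pH 6.75 with 1 mM EDTA and 10 mM L-cysteine, 25 °C, DMSO <1%. Rates taken from continuous fluorogenic substrate read; Ki by regression assuming reversible pure-competitive inhibition.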

CPB2.8ΔCTE = target: T3, CPB2.8ΔCTE (Leishmania mexicana, UniProt P36400); test: Leishmania mexicana cysteine protease B (CPB) peptidase activity assay (Ki); conditions: Ki, inhibitors of Leismania mexicana CPB protease
T3 construct: Wild-type recombinant CPB without the C-terminal extention (i.e. CPB2.8ΔCTE); Dr. Jeremy Mottram (Wellcome Centre for Molecular Parasitology, University of Glasgow)
Method in brief: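 Apparent Ki was derived by regression of activity against inhibitor concentration, assuming pure-competitive reversible binding. Reaction: 0.25 nM CPB lacking the C-terminal extension, pH 5.5 acetate buffer (1 mM EDTA, 200 mM NaCl, 10 mM DTT), 25 °C, followed by continuous substrate fluorescence.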

T2 sequence (P07711 114-333): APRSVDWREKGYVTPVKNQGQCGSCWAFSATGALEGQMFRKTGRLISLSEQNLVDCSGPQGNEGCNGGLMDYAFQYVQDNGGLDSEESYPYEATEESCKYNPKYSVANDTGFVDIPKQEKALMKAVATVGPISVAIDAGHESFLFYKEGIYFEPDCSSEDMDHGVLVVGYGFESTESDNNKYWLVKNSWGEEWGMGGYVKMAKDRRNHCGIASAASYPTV
T1 sequence (P25326 115-331): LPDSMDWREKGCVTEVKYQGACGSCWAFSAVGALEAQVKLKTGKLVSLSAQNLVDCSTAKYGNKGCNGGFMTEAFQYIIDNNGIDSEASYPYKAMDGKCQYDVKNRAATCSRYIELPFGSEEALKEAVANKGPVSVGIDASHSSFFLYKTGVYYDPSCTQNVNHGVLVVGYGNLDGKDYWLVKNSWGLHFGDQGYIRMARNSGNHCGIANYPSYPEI
T3 sequence (P36400 126-343, stated change not applied): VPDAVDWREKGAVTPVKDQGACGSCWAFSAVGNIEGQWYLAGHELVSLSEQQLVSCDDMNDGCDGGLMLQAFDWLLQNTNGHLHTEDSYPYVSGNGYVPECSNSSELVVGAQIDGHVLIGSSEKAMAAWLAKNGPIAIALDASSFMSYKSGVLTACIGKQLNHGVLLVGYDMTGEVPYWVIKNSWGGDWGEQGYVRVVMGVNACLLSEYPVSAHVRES
Chain of Wild-type cruzipain (P25779 whole entry): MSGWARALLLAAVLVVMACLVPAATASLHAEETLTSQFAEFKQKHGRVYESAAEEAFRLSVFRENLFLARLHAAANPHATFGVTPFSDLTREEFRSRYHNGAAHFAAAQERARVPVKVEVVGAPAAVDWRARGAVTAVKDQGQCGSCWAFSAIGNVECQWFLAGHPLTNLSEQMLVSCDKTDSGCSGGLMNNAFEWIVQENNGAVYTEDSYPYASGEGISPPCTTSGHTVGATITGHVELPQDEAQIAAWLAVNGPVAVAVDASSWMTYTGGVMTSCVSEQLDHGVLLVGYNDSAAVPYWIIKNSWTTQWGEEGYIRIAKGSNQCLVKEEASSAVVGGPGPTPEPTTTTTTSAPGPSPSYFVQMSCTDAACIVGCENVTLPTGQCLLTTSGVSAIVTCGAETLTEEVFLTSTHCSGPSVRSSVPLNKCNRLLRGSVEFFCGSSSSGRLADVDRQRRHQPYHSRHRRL

SMILES: CC(C)C[C@H](NC(=O)c1ccc2ccccc2n1)C(=O)N1CC[C@@H]2[C@H]1C(=O)CN2C(=O)c1ccccc1 [Example 8, (3aR,6aS)-Quinoline-2-carboxylic acid [(1S)-1-(4-benzoyl-6-oxo-hexahydro-pyrrolo[3,2-b]pyrrole-1-carbonyl)-3-methyl-butyl]-amide]
- Ki (Bovine cathepsin S): < 5 µM
- Ki (human cathepsin L): < 5 µM
- Ki (Wild-type cruzipain): < 5 µM

SMILES: CC(C)C[C@H](NC(=O)c1cnc2ccccc2n1)C(=O)N1CC[C@@H]2[C@H]1C(=O)CN2C(=O)c1ccccc1 [Example 12, (3aR,6aS)-Quinoxaline-2-carboxylic acid [(1S)-1-(4-benzoyl-6-oxo-hexahydro-pyrrolo[3,2-b]pyrrole-1-carbonyl)-3-methyl-butyl]-amide]
- Ki (Bovine cathepsin S): < 5 µM
- Ki (human cathepsin L): < 5 µM
- Ki (Wild-type cruzipain): < 5 µM

SMILES: CC(C)C[C@H](NC(=O)c1cccc(Oc2ccccc2)c1)C(=O)N1CC[C@@H]2[C@H]1C(=O)CN2C(=O)c1ccccc1 [Example 13, (3aR,6aS)-N-[(1S)-1-(4-Benzoyl-6-oxo-hexahydro-pyrrolo[3,2-b]pyrrole-1-carbonyl)-3-methyl-butyl]-3-phenoxy-benzamide]
- Ki (Bovine cathepsin S): < 5 µM
- Ki (CPB2.8ΔCTE): < 5 µM
- Ki (Wild-type cruzipain): < 5 µM

SMILES: CC(C)C[C@H](NC(=O)c1cc2ccccc2o1)C(=O)N1CC[C@@H]2[C@H]1C(=O)CN2C(=O)c1cccnc1 [Example 16, (3aR,6aS)-Benzofuran-2-carboxylic acid {(1S)-3-methyl-1-[6-oxo-4-(pyridine-3-carbonyl)-hexahydro-pyrrolo[3,2-b]pyrrole-1-carbonyl]-butyl}-amide]
- Ki (Bovine cathepsin S): < 5 µM
- Ki (human cathepsin L): < 5 µM
- Ki (CPB2.8ΔCTE): < 5 µM
- Ki (Wild-type cruzipain): < 5 µM

SMILES: CC(C)C[C@H](NC(=O)c1cccc(Oc2ccccc2)c1)C(=O)N1CC[C@@H]2[C@H]1C(=O)CN2C(=O)c1cccnc1 [Example 20, (3aR,6aS)-N-{(1S)-3-Methyl-1-[6-oxo-4-(pyridine-3-carbonyl)-hexahydro-pyrrolo[3,2-b]pyrrole-1-carbonyl]-butyl}-3-phenoxy-benzamide]
- Ki (Bovine cathepsin S): < 5 µM
- Ki (CPB2.8ΔCTE): < 5 µM
- Ki (Wild-type cruzipain): < 5 µM

SMILES: O=C(N[C@@H](Cc1ccc(O)cc1)C(=O)N1CC[C@@H]2[C@H]1C(=O)CN2C(=O)c1ccccc1)c1cccc(F)c1 [Example 335, (3aR,6aS)-N-[(1S)-2-(4-Benzoyl-6-oxo-hexahydro-pyrrolo[3,2-b]pyrrol-1-yl)-1-(4-hydroxy-benzyl)-2-oxo-ethyl]-3-fluoro-benzamide]
- Ki (Bovine cathepsin S): < 5 µM
- Ki (Wild-type cruzipain): < 5 µM

SMILES: CC(C)C[C@H](NC(=O)c1cccc(Br)c1)C(=O)N1CC[C@@H]2[C@H]1C(=O)CN2C(=O)c1ccccc1 [Example 340, (3aR,6aS)-N-[(1S)-1-(4-Benzoyl-6-oxo-hexahydro-pyrrolo[3,2-b]pyrrole-1-carbonyl)-3-methyl-butyl]-3-bromo-benzamide]
- Ki (Bovine cathepsin S): < 5 µM

Next, values leading:

- Ki (Bovine cathepsin S): < 5 µM
- Ki (human cathepsin L): < 5 µM
- Ki (Wild-type cruzipain): < 5 µM
SMILES: CC(C)C[C@H](NC(=O)c1cc2ccccc2o1)C(=O)N1CC[C@@H]2[C@H]1C(=O)CN2C(=O)c1ccccc1 [Example 9, (3aR,6aS)-Benzofuran-2-carboxylic acid [(1S)-1-(4-benzoyl-6-oxo-hexahydropyrrolo[3,2-b]pyrrole-1-carbonyl)-3-methyl-butyl]-amide]

- Ki (Bovine cathepsin S): < 5 µM
- Ki (human cathepsin L): < 5 µM
- Ki (Wild-type cruzipain): < 5 µM
SMILES: Cc1c(C(=O)N[C@@H](CC(C)C)C(=O)N2CC[C@@H]3[C@H]2C(=O)CN3C(=O)c2ccccc2)oc2ccccc12 [Example 10, (3aR,6aS)-3-Methyl-benzofuran-2-carboxylic acid [(1S)-1-(4-benzoyl-6-oxo-hexahydro-pyrrolo[3,2-b]pyrrole-1-carbonyl)-3-methyl-butyl]-amide]

- Ki (Bovine cathepsin S): < 5 µM
- Ki (Wild-type cruzipain): < 5 µM
SMILES: CC(C)C[C@H](NC(=O)c1cnc2ccccc2n1)C(=O)N1CC[C@@H]2[C@H]1C(=O)CN2C(=O)c1cccnc1 [Example 19, (3aR,6aS)-Quinoxaline-2-carboxylic acid {(1S)-3-methyl-1-[6-oxo-4-(pyridine-3-carbonyl)-hexahydro-pyrrolo[3,2-b]pyrrole-1-carbonyl]-butyl}-amide]

- Ki (Bovine cathepsin S): < 5 µM
SMILES: CC(C)C[C@H](NC(=O)c1cccc(CN)c1)C(=O)N1CC[C@@H]2[C@H]1C(=O)CN2S(=O)(=O)c1ccccc1 [Example 123, (3aR,6aS)-3-Aminomethyl-N-[(1S)-1-(4-benzenesulfonyl-6-oxo-hexahydro-pyrrolo[3,2-b]pyrrole-1-carbonyl)-3-methyl-butyl]-benzamide]

- Ki (Bovine cathepsin S): < 5 µM
SMILES: O=C(N[C@@H](CC1CC1)C(=O)N1CC[C@@H]2[C@H]1C(=O)CN2C(=O)c1ccccc1)c1ccsc1 [Example 187, (3aR,6aS)-Thiophene-3-carboxylic acid [(1S)-2-(4-benzoyl-6-oxo-hexahydro-pyrrolo[3,2-b]pyrrole-1-yl)-1-cyclopropylmethyl-2-oxo-ethyl]-amide]

- Ki (Bovine cathepsin S): < 5 µM
- Ki (Wild-type cruzipain): < 5 µM
SMILES: CS(=O)(=O)c1ccccc1C(=O)N1CC(=O)[C@@H]2[C@H]1CCN2C(=O)[C@H](Cc1ccc(O)cc1)NC(=O)c1cccc(Br)c1 [Example 303, (3aR,6aS)-3-Bromo-N-{(1S)-1-(4-hydroxy-benzyl)-2-[4-(2-methanesulfonyl-benzoyl)-6-oxo-hexahydro-pyrrolo[3,2-b]pyrrole-1-yl]-2-oxo-ethyl}-benzamide]

- Ki (Bovine cathepsin S): < 5 µM
- Ki (Wild-type cruzipain): < 5 µM
SMILES: O=C(N[C@@H](Cc1ccc(O)cc1)C(=O)N1CC[C@@H]2[C@H]1C(=O)CN2C(=O)c1ccccc1)c1ccc2ncsc2c1 [Example 317, (3aR,6aS)-Benzothiazole-6-carboxylic acid [(1S)-2-(4-benzoyl-6-oxo-hexahydro-pyrrolo[3,2-b]pyrrole-1-yl)-1-(4-hydroxy-benzyl)-2-oxo-ethyl]-amide]

- Ki (Bovine cathepsin S): < 5 µM
- Ki (Wild-type cruzipain): < 5 µM
SMILES: O=C(N[C@@H](Cc1ccc(O)cc1)C(=O)N1CC[C@@H]2[C@H]1C(=O)CN2C(=O)c1ccccc1)c1cccc(Cl)c1 [Example 334, (3aR,6aS)-N-[(1S)-2-(4-Benzoyl-6-oxo-hexahydro-pyrrolo[3,2-b]pyrrol-1-yl)-1-(4-hydroxy-benzyl)-2-oxo-ethyl]-3-chloro-benzamide]
